The subject of data set [1] is human lung carcinoma A549 cells. The data set is described as follows: MTT based cell proliferation assay, A549. Conditions: for inhibition at 10 µg/mL / IC50: Homo sapiens, A549, 72 h; for inhibition at 10 µg/mL: read-out: Cell Proliferation Inhibition in A549 (Lung carcinoma), % at highest screening dose; for IC50: read-out: Cell Proliferation Inhibition in A549 (Lung carcinoma), IC50.

For data set [2], the system named is human colorectal carcinoma HT29 cells. The data set is described as follows: MTT based cell proliferation assay, HT29. Conditions: for inhibition at 10 µg/mL / IC50: Homo sapiens, HT-29, 72 h; for inhibition at 10 µg/mL: read-out: Cell Proliferation Inhibition in HT29 (Colon carcinoma), % at highest screening dose; for IC50: read-out: Cell Proliferation Inhibition in HT29 (Colon carcinoma), IC50.

For data set [3], the system named is human prostate DU145 cells. The experiment in a line: MTT based cell proliferation assay, DU145. The note with it: for inhibition at 10 µg/mL / IC50: Homo sapiens, DU-145, 72 h; for inhibition at 10 µg/mL: read-out: Cell Proliferation Inhibition in DU145 (Prostate carcinoma), % at highest screening dose; for IC50: read-out: Cell Proliferation Inhibition in DU145 (Prostate carcinoma), IC50.

The test system of data set [4] is HepG2 (Hepatocellular Carcinoma). The data set is described as follows: cells. It is filed as cell-based. As to the method:
(§1) MTT [3-(4,5-dimethylthiazol-2-yl)-2,5-diphenyltetrazolium bromide] incorporation based cell proliferation assay was performed using standard procedure. […] The assay was carried out according to the instructions provided by the vendor. […] Vehicle control culture wells received only a maximum of 0.5% DMSO. Thereafter, 0.5 mg/ml of MTT reagent was added to each well and the microplate was incubated further for 4 h at 37° C. in presence of 5% CO2. Finally, the cells were solubilized by adding solubilizing solution and allowed to incubate at 37° C. overnight. After complete solubilization of the formazan crystals the absorbance was read at 540 nm in a microplate reader (BioRad, USA).
(§2) The evaluation of cell proliferation inhibitory activities of the compounds was done in two phases—(1) Screening, and (2) half-maximal inhibitory concentration (IC50) determination. In the screening phase, the cells were treated with three different concentrations e.g. 1, 5 and 10 μg/ml.

In data set [5] the test system is human breast carcinoma (estrogen receptor negative) MDA-MB-231 cells. The experiment in a line: cells. It is filed as cell-based. As to the method:
as §1, §2

Data set [6] concerns human cervical carcinoma HeLa cells. The data set is described as follows: cells. The data set is classed as cell-based. As to the method:
as §1, §2

As a reminder, the melting point is the temperature of the solid-liquid transition.

`CC(C)(C)c1cc(Nc2ncnc3oc(-c4ccccc4)cc23)c(C(N)=O)[se]1` [Compound 15, 3-(6-phenylfuro[2,3-d]pyrimidin-4-ylamino)-5-tert-butylselenophene-2-carboxamide] had a melting point of 280 to 282 °C. Also, in data set [1], the inhibition at 10 µg/mL was 5.87%. In data set [2], the inhibition at 10 µg/mL was 25.4%. In data set [3], the inhibition at 10 µg/mL was found to be 3.44%.
`COc1cc2ncnc(N(C)c3cc(C(C)(C)C)[se]c3C(N)=O)c2cc1OC` [Compound 21, 3-(N-(6,7-dimethoxyquinazolin-4-yl)-N-methylamino)-5-tert-butylseleno-phene-2-carboxamide] came in with a melting point of 256 to 258 °C. Moreover, in data set [4] (Homo sapiens, HepG2, MTT, read-out: Cell proliferation inhibition (IC50) in HepG2 (Hepatocellular Carcinoma)), the IC50 came to 2.33 µM. Further, in data set [4] (ratio of IC50 values), the “potency compared to Iressa, HepG2” value is on record as “fifteen”. Further, the IC50 in data set [5] (Homo sapiens, MDA-MB-231, MTT, read-out: Cell proliferation inhibition (IC50) in MDA-MB-231 (Breast Carcinoma)) worked out at 2.86 µM. The “potency compared to Iressa, MDA-MB-231” value in data set [5] (ratio of IC50 values) was “sixteen”. Moreover, in data set [6] (Homo sapiens, HeLa, MTT, read-out: Cell proliferation inhibition (IC50) in HeLa (Cervical Carcinoma)), the IC50 is 2.97 µM. Further, in data set [6] (ratio of IC50 values), the “potency compared to Iressa, HeLa” value is listed as “seventeen times”. Moreover, the IC50 in data set [1] was found to be 3.59 µM. For the same compound, in data set [2], the IC50 was 3.88 µM. In data set [3], the IC50 was determined as 3.95 µM.
As to `CSc1cc2ncnc(Nc3cc(C(C)(C)C)[se]c3C(N)=O)c2s1` [Compound 14, 3-(6-(methylthio)thiopheno[3,2-d]pyrimidin-4-ylamino)-5-tert-butyl-selenophene-2-carboxamide], the melting point lay within 260 to 262 °C. In addition, the inhibition at 10 µg/mL in data set [1] came out at 3.54%. In data set [2], the inhibition at 10 µg/mL amounted to 53.5%. Moreover, the inhibition at 10 µg/mL in data set [3] was 7.81%.
`COC(=O)c1cc(Nc2ncnc3[nH]c(C)c(C)c23)c(C)[se]1` [Compound 17, methyl 4-(5,6-dimethyl-7H-pyrrolo[2,3-d]pyrimidin-4-ylamino)-5-methylselenophene-2-carboxylate]: the melting point was in the range of 238 to 240 °C. Besides, the inhibition at 10 µg/mL in data set [1] came to 2.66%. In data set [2], the inhibition at 10 µg/mL came to 4.54%. In data set [3], the inhibition at 10 µg/mL came to 7.62%.
For `COc1cc2ncnc(Nc3cc(C(C)(C)C)[se]c3C(N)=O)c2cc1OC` [Compound 1, 3-(6,7-dimethoxyquinazolin-4-ylamino)-5-tert-butylselenophene-2-carboxamide], the melting point was 234 to 238 °C. Also, in data set [1], the IC50 is 9.08 µM. Further, the “potency in vitro compared to gefitinib (Iressa), A549” value in data set [1] (ratio of IC50 values) is reported as “approximately two times”. Besides, the IC50 in data set [2] was found to be 5.12 µM. Besides, the “potency in vitro compared to gefitinib (Iressa), HT29” value in data set [2] (ratio of IC50 values) is “several times better potency”. The IC50 in data set [3] is 3.6 µM. Also, the “potency in vitro compared to gefitinib (Iressa), DU145” value in data set [3] (ratio of IC50 values) was “several times better potency”.

For the origin of these results see patent US8815879B2, “Substituted 4-(selenophen-2(or-3)-ylamino)pyrimidine compounds and methods of use thereof” (Kasina Laila Innova Pharmaceuticals Private Limited, priority 2010, dated 2014).
